Source: patent US10076511B2, “Bisamide derivative of dicarboxylic acid as an agent for stimulating tissue regeneration and recovery of diminished tissue function” (TREAMID GmbH, priority 2015, dated 2018)
Several values for one entry are separate records, joined by “and”; a condition that tells them apart may be missing. Identical values can stand only once.

What was measured:
male Wistar rats = experiment: Sperm motility in asthenospermia simulated with Etoposide; assay type: in vivo, rat; details: for percentage of motile sperm cells: Treamid 5.0 mg/kg for 10 days after administration of Etoposide; for The number of motile sperm cells (in %): 5 days before and 5 days after Etoposide (preventive course), Treamid 5.0 mg/kg
Description: The use of the drug that induces an increase in the free radical level was due to the fact that according to modern ideas, the direct cause of asthenospermia is oxidative stress (Kao S. H. et. al. Increase of oxidativestress in human sperm with lower motility. Fertil. and Steril. 2008; 89: 5: 1183-1190).
The experiments were performed on 50 male Wistar rats (3 months of age). Etoposide was administered once intravenously at the maximum tolerated dose of 30 mg/kg.
The effectiveness of Treamid was assessed by the percentage of motile sperm forms isolated from the epididymis.
In the first series, the results of the studies were compared with those obtained for administration of the reference drug, Speman, that was administered intragastrically at a dose of 140 mg/kg.

female C57Bl/6 mice = experiment: Elastase-induced pulmonary emphysema model; assay type: in vivo, mouse
Description: Pulmonary emphysema was induced in female C57Bl/6 mice by a single intratracheal administration of elastase (Sigma, USA) at a dose of 0.6 U/mouse in 30 μl of 0.9% NaCl [Lüthje L., Raupach T., Michels H. et al.//Respiratory Research 2009, 10: 7]. The day of operation was taken as Day 0 of the experiment. Treamid was administered at a dose of 10 mg/kg intragastrically once daily, every day from Day 7 to Day 60 of the study. On Days 7, 14, 30 and 60, the animals were euthanized in a CO2 chamber, and their lungs were isolated.
The dynamics and severity of the developed emphysema in the lung tissue were assessed on histological preparations. For this, the lungs were fixed in a 10% neutral formalin solution and then poured into paraffin by the standard method. The preparations of the lung apex, middle lung field, and lower lung field of a thickness of 5 μm were prepared from the deparaffined sections, and stained with hematoxylin and eosin by the standard procedure. Further, photographs of the lung apex, middle lung field, and lower lung field were made, and the localization and area of emphysema were studied by using graphics processing software. The area of emphysematously enlarged lung tissue (% of normal tissue) was measured as an estimated score of the development of emphysema, and blood vessels and bronchi were excluded from the calculations [ArrateMunoz-Barrutia, Mario Ceresa, Xabier Artaechevarria, Luis M. Montuenga, and Carlos Ortiz-de-Solorzano. Quantification of Lung Damage in an Elastase-Induced Mouse Model of Emphysema//International Journal of Biomedical Imaging. Volume 2012, Article ID 734734, 11 pages; Susumu Sato, Erzsebet Bartoldk-Suki, Harikrishnan Parameswaran, Hiroshi Hamakawal and Bela Suki. Scale dependence of structure-function relationship in the emphysematous mouse lung//Front. Physiol. 6:146. doi: 10.3389/fphys. 2015.00146].

male rats = assay type: in vivo, rat; details: Day 45 and Day 65
Description: The latter was simulated by a single injection of cytostatic drug Paclitaxel (Mitotax, Dr. Reddy's, India) to male rats (3 months of age). The choice of the drug was due to the fact that it is one of the medications that damage the precursors of spermatogenesis—stem cells.
Paclitaxel was administered to the animals of the control and test groups once intravenously at the maximum tolerated dose of 7.6 mg/kg. Treamid was administered to the animals of the experimental groups intragastrically at a dose of 5 mg/kg in the form of a suspension in 2% starch mucus for 15 days a month after the administration of Paclitaxel. The control animals received an equivalent volume of the solvent (2% starch mucus), instead of the test compound. […]
On Day 1 (in 24 hours), as well as on Day 45 and Day 65 after the administration of Paclitaxel, the animals were euthanized, and the preparations of their testes were made. Further, the content of progenitor cells of spermatogenesis in the testes was determined by an in vitro cloning method. […] Then, the nonadherent fraction of cells was collected, and the number of cells (cells/ml) was counted in the Goriaev chamber. […] After the incubation, the number of colony-forming units, spermatogenic (CFU-Sp)—clusters of more than 30 cells of round shape and of various diameters—was counted. […]

[1] = Day 7, Treamid 10 mg/kg intragastrically from Day 7

O=C(CCCC(=O)NCCc1ncc[nH]1)NCCc1ncc[nH]1 [Treamid]
percentage of motile sperm cells (male Wistar rats; group M ± m): 71.01 ± 1.80 %
The number of motile sperm cells (in %) (male Wistar rats; group X ± m, Speman 140 mg/kg): 79.83 ± 1.88#*⋄ %
The number of motile sperm cells (in %) (male Wistar rats; individual animals, Speman 140 mg/kg intragastrically): 77.42% and 79.09% and 82.72% and 74.67% and 85.26%
percentage of motile sperm cells (male Wistar rats; individual males): 74.55% and 69.44% and 70.20% and 65.52% and 75.34%
The area of emphysematously enlarged lung tissue (% of normal), Lower lung field (female C57Bl/6 mice; [1]): 41.3 ± 1.82 % of normal
The area of emphysematously enlarged lung tissue (% of normal), Lung apex (female C57Bl/6 mice; [1]): 0.9 ± 0.12*• % of normal
The area of emphysematously enlarged lung tissue (% of normal), Middle lung field (female C57Bl/6 mice; [1]): 5.4 ± 0.55 % of normal
The area of emphysematously enlarged lung tissue (% of normal), Lower lung field (female C57Bl/6 mice; Day 14, Treamid 10 mg/kg): 42.6 ± 1.79*• % of normal
The area of emphysematously enlarged lung tissue (% of normal), Lung apex (female C57Bl/6 mice; Day 14, Treamid 10 mg/kg): 0.7 ± 0.09*• % of normal
The area of emphysematously enlarged lung tissue (% of normal), Middle lung field (female C57Bl/6 mice; Day 14, Treamid 10 mg/kg): 29.03 ± 1.76 % of normal
The area of emphysematously enlarged lung tissue (% of normal), Lower lung field (female C57Bl/6 mice; Day 30, Treamid 10 mg/kg): 32.8 ± 3.78*• % of normal
The area of emphysematously enlarged lung tissue (% of normal), Lung apex (female C57Bl/6 mice; Day 30, Treamid 10 mg/kg): 2.4 ± 1.6*• % of normal
The area of emphysematously enlarged lung tissue (% of normal), Middle lung field (female C57Bl/6 mice; Day 30, Treamid 10 mg/kg): 18.5 ± 2.91 % of normal
The area of emphysematously enlarged lung tissue (% of normal), Lower lung field (female C57Bl/6 mice; Day 60, Treamid 10 mg/kg): 40.0 ± 3.57*• % of normal
The area of emphysematously enlarged lung tissue (% of normal), Lung apex (female C57Bl/6 mice; Day 60, Treamid 10 mg/kg): 3.6 ± 0.26*• % of normal
The area of emphysematously enlarged lung tissue (% of normal), Middle lung field (female C57Bl/6 mice; Day 60, Treamid 10 mg/kg): 24.9 ± 3.11 % of normal
increase in the number of colony-forming cells compared with the cytostatic control (male rats): 44-48%
